Laboratory results reported in ChEMBL document CHEMBL5625206, “Design, synthesis, and evaluation of novel pleuromutilin aryl acrylate derivatives as promising broad-spectrum antibiotics especially for combatting multi-drug resistant gram-negative bacteria” (Eur J Med Chem, 2023).
In brackets after ≈: the same amount, converted by molar mass. Activity calls are given as the source filed them. The rule behind the calls is not given here.

Key:
[1] = test system: Staphylococcus epidermidis; assay: Antibacterial activity against Staphylococcus epidermidis ATCC 12228 assessed as bacterial growth inhibition incubated for 24 hrs by CLSI based broth microdilution method; type: functional
[2] = test system: Staphylococcus aureus; assay: Antibacterial activity against Staphylococcus aureus ATCC 25923 assessed as bacterial growth inhibition incubated for 24 hrs by CLSI based broth microdilution method; type: functional
[3] = test system: Staphylococcus aureus; assay: Antibacterial activity against Staphylococcus aureus ATCC 29213 assessed as bacterial growth inhibition incubated for 24 hrs by CLSI based broth microdilution method; type: functional
[4] = test system: Staphylococcus aureus; assay: Antibacterial activity against methicillin-resistant Staphylococcus aureus ATCC 33591 assessed as bacterial growth inhibition incubated for 24 hrs by CLSI based broth microdilution method; type: functional
[5] = test system: Escherichia coli; assay: Antibacterial activity against Escherichia coli ATCC 25922 assessed as bacterial growth inhibition incubated for 24 hrs by CLSI based broth microdilution method; type: functional
[6] = test system: Acinetobacter baumannii; assay: Antibacterial activity against Acinetobacter baumannii ATCC 19606 assessed as bacterial growth inhibition incubated for 24 hrs by CLSI based broth microdilution method; type: functional
[7] = test system: Mesomycoplasma hyopneumoniae; assay: Anti-mycoplasma activity against Mycoplasma hyopneumoniae J-NCYC10110 assessed as bacterial growth inhibition incubated for 7 days; type: functional; conditions: J-NCYC10110, 168 h, time 7 day
[8] = test system: Mesomycoplasma hyopneumoniae; assay: Anti-mycoplasma activity against Mycoplasma hyopneumoniae LH-NCTC10130 assessed as bacterial growth inhibition incubated for 7 days; type: functional; conditions: time 7 day
[9] = test system: Mesomycoplasma hyorhinis; assay: Anti-mycoplasma activity against Mycoplasma hyorhinis BTS-7-NCTC10130 assessed as bacterial growth inhibition incubated for 7 days; type: functional; conditions: BTS-7-NCTC10130, 168 h, time 7 day
[10] = test system: Mycoplasmoides gallisepticum; assay: Anti-mycoplasma activity against Mycoplasma gallisepticum MG-R-NCTC10115 assessed as bacterial growth inhibition incubated for 7 days; type: functional; conditions: MG-R-NCTC10115, 168 h, time 7 day
[11] = test system: Mycoplasmopsis synoviae; assay: Anti-mycoplasma activity against Mycoplasmopsis synoviae MS-MVU1852-NCTC10124 assessed as bacterial growth inhibition incubated for 7 days; type: functional; conditions: MS-MVU1852-NCTC10124, 168 h, time 7 day
[12] = test system: Staphylococcus aureus; assay: Antibacterial activity against methicillin-resistant Staphylococcus aureus 171 clinical isolate assessed as bacterial growth inhibition incubated for 24 hrs by CLSI based broth microdilution method; type: functional
[13] = test system: Staphylococcus aureus; assay: Antibacterial activity against methicillin-resistant Staphylococcus aureus 575 clinical isolate assessed as bacterial growth inhibition incubated for 24 hrs by CLSI based broth microdilution method; type: functional
[14] = test system: Enterococcus; assay: Antibacterial activity against vancomycin-resistant Enterococcus 80 clinical isolate assessed as bacterial growth inhibition incubated for 24 hrs by CLSI based broth microdilution method; type: functional
[15] = test system: Pseudomonas aeruginosa; assay: Antibacterial activity against multidrug-resistant Pseudomonas aeruginosa 126 clinical isolate assessed as bacterial growth inhibition incubated for 24 hrs by CLSI based broth microdilution method; type: functional
[16] = test system: Klebsiella pneumoniae; assay: Antibacterial activity against multidrug-resistant Klebsiella pneumoniae 893 clinical isolate assessed as bacterial growth inhibition incubated for 24 hrs by CLSI based broth microdilution method; type: functional
[17] = test system: Acinetobacter baumannii; assay: Antibacterial activity against carbapenem-resistant Acinetobacter baumannii 882 clinical isolate assessed as bacterial growth inhibition incubated for 24 hrs by CLSI based broth microdilution method; type: functional
[18] = Cytotoxicity against human HepG2 cells incubated for 24 hrs by CCK8 assay; type: toxicity, cell-based
[19] = Cytotoxicity against HEK293 cells incubated for 24 hrs by CCK8 assay; type: toxicity, cell-based; conditions: human
[20] = Cytotoxicity against human A549 cells incubated for 24 hrs by CCK8 assay; type: toxicity, cell-based
[21] = test system: Staphylococcus aureus; assay: Bactericidal activity against methicillin-resistant Staphylococcus aureus ATCC 33591 at MIC incubated for 24 hrs by time kill assay relative to control; type: functional
[22] = test system: Staphylococcus aureus; assay: Bactericidal activity against methicillin-resistant Staphylococcus aureus ATCC 33591 at 2 to 4 times MIC incubated for 24 hrs by time kill assay relative to control; type: functional
[23] = Toxicity in neutropenic Kunming mouse model infected with methicillin-resistant Staphylococcus aureus ATCC 33591 assessed as survival rate at 5 mg/kg, ip measured after 7 days relative to control; type: organism-based; conditions: in vivo, 168 h, time 7 day
[24] = Toxicity in neutropenic Kunming mouse model infected with methicillin-resistant Staphylococcus aureus ATCC 33591 assessed as survival rate at 10 mg/kg, ip measured after 7 days relative to control; type: organism-based; conditions: in vivo, 168 h, time 7 day
[25] = Toxicity in neutropenic Kunming mouse model infected with methicillin-resistant Staphylococcus aureus ATCC 33591 assessed as survival rate at 20 mg/kg, ip measured after 7 days relative to control; type: organism-based; conditions: in vivo, 168 h, time 7 day
[26] = test system: Staphylococcus aureus; assay: Antibacterial activity against methicillin-resistant Staphylococcus aureus ATCC 33591 infected in neutropenic Kunming mouse model administered intraperitoneally measured after 7 days; type: functional; conditions: ATCC 33591, 168 h, route ip, time 7 day
[27] = test system: Staphylococcus aureus; assay: Antibacterial activity against methicillin-resistant Staphylococcus aureus ATCC 33591 infected in neutropenic Kunming mouse model assessed as bacterial load reduction in lung at 10 to 20 mg/kg, ip measured after 2 days; type: functional, organism-based; conditions: dose 10-20 mg/kg, time 2.0 day
[28] = test system: Staphylococcus aureus; assay: Antibacterial activity against methicillin-resistant Staphylococcus aureus ATCC 33591 infected in neutropenic Kunming mouse model assessed as bacterial load reduction in kidney at 10 to 20 mg/kg, ip measured after 2 days; type: functional, organism-based; conditions: dose 10-20 mg/kg, time 2.0 day
[29] = test system: Staphylococcus aureus; assay: Antibacterial activity against methicillin-resistant Staphylococcus aureus ATCC 33591 infected in neutropenic Kunming mouse model assessed as bacterial load reduction in liver at 10 to 20 mg/kg, ip measured after 2 days; type: functional, organism-based; conditions: dose 10-20 mg/kg, time 2.0 day
[30] = test system: Staphylococcus aureus; assay: Antibacterial activity against methicillin-resistant Staphylococcus aureus ATCC 33591 infected in neutropenic Kunming mouse model assessed as reduction in infection-induced inflammatory cell inflammation in lung at 10 mg/kg, ip measured after 7 days; type: functional, organism-based; conditions: time 7.0 day
[31] = test system: Staphylococcus aureus; assay: Antibacterial activity against methicillin-resistant Staphylococcus aureus ATCC 33591 infected in neutropenic Kunming mouse model assessed as reduction in infection-induced inflammatory cell inflammation in kidney at 10 mg/kg, ip measured after 7 days; type: functional, organism-based; conditions: time 7.0 day
[32] = test system: Staphylococcus aureus; assay: Antibacterial activity against methicillin-resistant Staphylococcus aureus ATCC 33591 infected in neutropenic Kunming mouse model assessed as reduction in infection-induced inflammatory cell inflammation in liver at 10 mg/kg, ip measured after 7 days; type: functional, organism-based; conditions: time 7.0 day

| Compound | MIC [1] | MIC [2] | MIC [3] | MIC [4] | MIC [5] | MIC [6] | MIC [12] | MIC [13] | MIC [14] | MIC [15] | MIC [16] | MIC [17] | CC50 at 24 h [18] | CC50 at 24 h [19] | CC50 at 24 h [20] | other results |
| --- | --- | --- | --- | --- | --- | --- | --- | --- | --- | --- | --- | --- | --- | --- | --- | --- |
| C=C[C@]1(C)C[C@@H](OC(=O)CSCCN(CC)CC)[C@]2(C)[C@H](C)CC[C@]3(CCC(=O)[C@H]32)[C@@H](C)[C@@H]1O [TIAMULIN] | 16 µg/mL (≈ 32.4 µM) | 64 µg/mL (≈ 130 µM) | > 128 µg/mL | 128 µg/mL (≈ 259 µM) | 64 µg/mL (≈ 130 µM) | 64 µg/mL (≈ 130 µM) |  |  |  |  |  |  |  |  |  | MIC [7]: 0.03 µg/mL (≈ 0.0608 µM); MIC ([8]; Mesomycoplasma hyopneumoniae, LH-NCTC10130, 168 h, read-out: MIC): 0.015 µg/mL (≈ 0.0304 µM); MIC [9]: 0.03 µg/mL (≈ 0.0608 µM); MIC [10]: 0.125 µg/mL (≈ 0.253 µM); MIC [11]: 2 µg/mL (≈ 4.05 µM) |
| C=C[C@]1(C)C[C@@H](OC(=O)COC(=O)/C=C/c2ccc([N+](=O)[O-])cc2)[C@]2(C)[C@H](C)CC[C@]3(CCC(=O)[C@H]32)[C@@H](C)[C@@H]1O | 2 µg/mL (≈ 3.61 µM) | 8 µg/mL (≈ 14.4 µM) | 2 µg/mL (≈ 3.61 µM) | 4 µg/mL (≈ 7.22 µM) | 32 µg/mL (≈ 57.8 µM) | 64 µg/mL (≈ 116 µM) | 16 µg/mL (≈ 28.9 µM) | 16 µg/mL (≈ 28.9 µM) | 8 µg/mL (≈ 14.4 µM) | 64 µg/mL (≈ 116 µM) | 128 µg/mL (≈ 231 µM) | 128 µg/mL (≈ 231 µM) | > 200 µM | > 200 µM | > 200 µM |  |
| C=C[C@]1(C)C[C@@H](OC(=O)CS[C@@H]2C[C@H]3CC[C@@H](C2)N3C)[C@]2(C)[C@H](C)CC[C@]3(CCC(=O)[C@H]32)[C@@H](C)[C@@H]1O [RETAPAMULIN] | 32 µg/mL (≈ 61.8 µM) | 4 µg/mL (≈ 7.73 µM) | 4 µg/mL (≈ 7.73 µM) | 32 µg/mL (≈ 61.8 µM) | 16 µg/mL (≈ 30.9 µM) | 16 µg/mL (≈ 30.9 µM) | 128 µg/mL (≈ 247 µM) | 64 µg/mL (≈ 124 µM) | > 128 µg/mL | 128 µg/mL (≈ 247 µM) | 64 µg/mL (≈ 124 µM) | 64 µg/mL (≈ 124 µM) | 36.5 µM | 62.9 µM | 74.2 µM | Activity [21]: 44.49%; Activity [22]: 100% |
| C=C[C@]1(C)C[C@@H](OC(=O)COC(=O)/C=C/c2cccnc2)[C@]2(C)[C@H](C)CC[C@]3(CCC(=O)[C@H]32)[C@@H](C)[C@@H]1O | 2 µg/mL (≈ 3.92 µM) | 2 µg/mL (≈ 3.92 µM) | 8 µg/mL (≈ 15.7 µM) | 16 µg/mL (≈ 31.4 µM) | 16 µg/mL (≈ 31.4 µM) | 32 µg/mL (≈ 62.8 µM) | 32 µg/mL (≈ 62.8 µM) | 64 µg/mL (≈ 126 µM) | 32 µg/mL (≈ 62.8 µM) | 16 µg/mL (≈ 31.4 µM) | 64 µg/mL (≈ 126 µM) | > 128 µg/mL | 80.6 µM | 28.6 µM | 63.4 µM |  |
| C=C[C@]1(C)C[C@@H](OC(=O)COC(=O)/C=C/c2cccc(C#N)c2)[C@]2(C)[C@H](C)CC[C@]3(CCC(=O)[C@H]32)[C@@H](C)[C@@H]1O | 2 µg/mL (≈ 3.75 µM) | 2 µg/mL (≈ 3.75 µM) | 8 µg/mL (≈ 15 µM) | 16 µg/mL (≈ 30 µM) | 64 µg/mL (≈ 120 µM) | 128 µg/mL (≈ 240 µM) | 32 µg/mL (≈ 60 µM) | 64 µg/mL (≈ 120 µM) | 16 µg/mL (≈ 30 µM) | 128 µg/mL (≈ 240 µM) | 128 µg/mL (≈ 240 µM) | > 128 µg/mL | 78.5 µM | 29.2 µM | > 200 µM |  |
| C=C[C@]1(C)C[C@@H](OC(=O)COC(=O)/C(C#N)=C/c2ccccc2)[C@]2(C)[C@H](C)CC[C@]3(CCC(=O)[C@H]32)[C@@H](C)[C@@H]1O | 8 µg/mL (≈ 15 µM) | 4 µg/mL (≈ 7.5 µM) | 8 µg/mL (≈ 15 µM) | 32 µg/mL (≈ 60 µM) | 8 µg/mL (≈ 15 µM) | 4 µg/mL (≈ 7.5 µM) | 64 µg/mL (≈ 120 µM) | > 128 µg/mL | 8 µg/mL (≈ 15 µM) | 64 µg/mL (≈ 120 µM) | 32 µg/mL (≈ 60 µM) | 8 µg/mL (≈ 15 µM) | > 200 µM | > 200 µM | > 200 µM |  |
| C=C[C@]1(C)C[C@@H](OC(=O)CSC(C)(C)CNC(=O)[C@H](N)C(C)C)[C@]2(C)[C@H](C)CC[C@]3(CCC(=O)[C@H]32)[C@@H](C)[C@@H]1O [VALNEMULIN] | 64 µg/mL (≈ 113 µM) | 4 µg/mL (≈ 7.08 µM) | 2 µg/mL (≈ 3.54 µM) | > 128 µg/mL | 2 µg/mL (≈ 3.54 µM) | 2 µg/mL (≈ 3.54 µM) | 128 µg/mL (≈ 227 µM) | 128 µg/mL (≈ 227 µM) | 128 µg/mL (≈ 227 µM) | 64 µg/mL (≈ 113 µM) | 128 µg/mL (≈ 227 µM) | 64 µg/mL (≈ 113 µM) | 37.3 µM | 31.1 µM | 46.2 µM | MIC [7]: 0.001 µg/mL (≈ 0.00177 µM); MIC [8]: 0.3 10^-4 ug/ml; MIC [9]: 0.001 µg/mL (≈ 0.00177 µM); MIC [10]: 0.001 µg/mL (≈ 0.00177 µM); MIC [11]: 0.015 µg/mL (≈ 0.0266 µM); Survival [23]: 20%; Survival [24]: 40%; Survival [25]: 70%; ED50 [26]: 14 mg/kg; Activity [27]: Active; Activity [28]: Active; Activity [29]: Active; Activity [30]: inactive; Activity [31]: inactive; Activity [32]: inactive |
